Data as given in the NIST ThermoML archive (doi:10.1021/je060415l).

Experiment: isobaric coefficient of expansion
Settings: Liquid, expansion method

CO [methanol]
Settings | isobaric coefficient of expansion
248.17 K, 45100 kPa | 0.000942 1/K
248.19 K, 590 kPa | 0.00112 1/K
249.69 K, 80030 kPa | 0.000847 1/K
250.17 K, 20010 kPa | 0.00104 1/K
250.17 K, 45100 kPa | 0.000939 1/K
250.18 K, 590 kPa | 0.00112 1/K
252.18 K, 590 kPa | 0.00113 1/K
252.18 K, 20010 kPa | 0.00103 1/K
252.18 K, 45100 kPa | 0.000938 1/K
252.2 K, 80030 kPa | 0.000842 1/K
254.18 K, 590 kPa | 0.00113 1/K
254.18 K, 20010 kPa | 0.00103 1/K
254.18 K, 45100 kPa | 0.00094 1/K
254.72 K, 80030 kPa | 0.000837 1/K
256.17 K, 590 kPa | 0.00114 1/K
256.17 K, 20010 kPa | 0.00103 1/K
256.18 K, 45100 kPa | 0.000937 1/K
257.2 K, 80030 kPa | 0.00084 1/K
258.17 K, 590 kPa | 0.00113 1/K
258.17 K, 20010 kPa | 0.00104 1/K
258.18 K, 45100 kPa | 0.000937 1/K
259.68 K, 80030 kPa | 0.000841 1/K
260.18 K, 590 kPa | 0.00113 1/K
260.18 K, 45100 kPa | 0.000932 1/K
262.17 K, 590 kPa | 0.00114 1/K
262.17 K, 20010 kPa | 0.00103 1/K
262.17 K, 45100 kPa | 0.000936 1/K
262.21 K, 80030 kPa | 0.000841 1/K
264.17 K, 20010 kPa | 0.00103 1/K
264.17 K, 45100 kPa | 0.000938 1/K
264.77 K, 80030 kPa | 0.000839 1/K
266.17 K, 590 kPa | 0.00113 1/K
266.17 K, 20010 kPa | 0.00103 1/K
266.17 K, 45100 kPa | 0.000942 1/K
267.34 K, 80030 kPa | 0.000835 1/K
268.16 K, 20010 kPa | 0.00103 1/K
268.17 K, 590 kPa | 0.00114 1/K
268.17 K, 45100 kPa | 0.000934 1/K
269.32 K, 80030 kPa | 0.000834 1/K
270.16 K, 590 kPa | 0.00114 1/K
270.16 K, 20010 kPa | 0.00104 1/K
272.14 K, 45100 kPa | 0.00094 1/K
272.52 K, 80030 kPa | 0.000831 1/K
274.14 K, 45100 kPa | 0.000947 1/K
274.15 K, 20010 kPa | 0.00104 1/K
275.11 K, 80030 kPa | 0.000835 1/K
276.12 K, 590 kPa | 0.00114 1/K
276.14 K, 45100 kPa | 0.000938 1/K
276.15 K, 20010 kPa | 0.00104 1/K
277.69 K, 80030 kPa | 0.000835 1/K
278.13 K, 45100 kPa | 0.00094 1/K
278.15 K, 20010 kPa | 0.00104 1/K
278.16 K, 590 kPa | 0.00115 1/K
280.14 K, 45100 kPa | 0.00094 1/K
280.15 K, 20010 kPa | 0.00104 1/K
280.16 K, 590 kPa | 0.00115 1/K
280.28 K, 80030 kPa | 0.000833 1/K
282.13 K, 45100 kPa | 0.00094 1/K
282.15 K, 590 kPa | 0.00116 1/K
282.15 K, 20010 kPa | 0.00104 1/K
282.88 K, 80030 kPa | 0.000832 1/K
284.13 K, 45100 kPa | 0.000945 1/K
284.14 K, 590 kPa | 0.00116 1/K
284.14 K, 20010 kPa | 0.00104 1/K
285.53 K, 80030 kPa | 0.000829 1/K
286.15 K, 590 kPa | 0.00118 1/K
286.15 K, 20010 kPa | 0.00105 1/K
288.14 K, 45100 kPa | 0.000945 1/K
288.16 K, 590 kPa | 0.00117 1/K
288.17 K, 80030 kPa | 0.000826 1/K
289.13 K, 590 kPa | 0.00118 1/K
290.13 K, 45100 kPa | 0.000945 1/K
290.14 K, 20010 kPa | 0.00106 1/K
290.16 K, 590 kPa | 0.00117 1/K
290.79 K, 80030 kPa | 0.000832 1/K
291.13 K, 590 kPa | 0.00118 1/K
292.14 K, 45100 kPa | 0.000943 1/K
292.15 K, 20010 kPa | 0.00104 1/K
292.16 K, 590 kPa | 0.00117 1/K
293.12 K, 590 kPa | 0.00119 1/K
293.4 K, 80030 kPa | 0.000846 1/K
294.13 K, 45100 kPa | 0.000938 1/K
294.14 K, 20010 kPa | 0.00105 1/K
294.16 K, 590 kPa | 0.00118 1/K
295.12 K, 590 kPa | 0.0012 1/K
296.02 K, 80030 kPa | 0.000842 1/K
296.13 K, 45100 kPa | 0.00094 1/K
296.14 K, 20010 kPa | 0.00105 1/K
296.16 K, 590 kPa | 0.00117 1/K
297.12 K, 590 kPa | 0.00118 1/K
298.13 K, 45100 kPa | 0.000942 1/K
298.15 K, 20010 kPa | 0.00105 1/K
298.17 K, 590 kPa | 0.00118 1/K
298.65 K, 80030 kPa | 0.00085 1/K
300.16 K, 590 kPa | 0.00119 1/K
301.27 K, 80030 kPa | 0.000833 1/K
